Experimental data reported in the kinase profiling compilation of Christmann-Franck et al. (2016).

How the values were obtained:
Assay in all cases: KINOMEscan competition binding
Details in all cases: compound 10.0 µM
[1] = system: ABL1 (human), P00519 [Q252H]
[2] = system: ABL1 (human), P00519 [Y253F]
ADCK4 (human) = ADCK4 (human) (UniProt Q96D53)
CAMK2B (human) = CAMK2B (human) (UniProt Q13554)
CDC42BPA (human) = CDC42BPA (human) (UniProt Q5VT25)
CDC42BPG (human) = CDC42BPG (human) (UniProt Q6DT37)
EPHA5 (human) = EPHA5 (human) (UniProt P54756)
EPHB1 (human) = EPHB1 (human) (UniProt P54762)
EPHB3 (human) = EPHB3 (human) (UniProt P54753)
EPHB4 (human) = EPHB4 (human) (UniProt P54760)
FGFR1 (human) = FGFR1 (human) (UniProt P11362)
FGFR2 (human) = FGFR2 (human) (UniProt P21802)
Chain of FGFR2 (human) (P21802 whole entry, looked up): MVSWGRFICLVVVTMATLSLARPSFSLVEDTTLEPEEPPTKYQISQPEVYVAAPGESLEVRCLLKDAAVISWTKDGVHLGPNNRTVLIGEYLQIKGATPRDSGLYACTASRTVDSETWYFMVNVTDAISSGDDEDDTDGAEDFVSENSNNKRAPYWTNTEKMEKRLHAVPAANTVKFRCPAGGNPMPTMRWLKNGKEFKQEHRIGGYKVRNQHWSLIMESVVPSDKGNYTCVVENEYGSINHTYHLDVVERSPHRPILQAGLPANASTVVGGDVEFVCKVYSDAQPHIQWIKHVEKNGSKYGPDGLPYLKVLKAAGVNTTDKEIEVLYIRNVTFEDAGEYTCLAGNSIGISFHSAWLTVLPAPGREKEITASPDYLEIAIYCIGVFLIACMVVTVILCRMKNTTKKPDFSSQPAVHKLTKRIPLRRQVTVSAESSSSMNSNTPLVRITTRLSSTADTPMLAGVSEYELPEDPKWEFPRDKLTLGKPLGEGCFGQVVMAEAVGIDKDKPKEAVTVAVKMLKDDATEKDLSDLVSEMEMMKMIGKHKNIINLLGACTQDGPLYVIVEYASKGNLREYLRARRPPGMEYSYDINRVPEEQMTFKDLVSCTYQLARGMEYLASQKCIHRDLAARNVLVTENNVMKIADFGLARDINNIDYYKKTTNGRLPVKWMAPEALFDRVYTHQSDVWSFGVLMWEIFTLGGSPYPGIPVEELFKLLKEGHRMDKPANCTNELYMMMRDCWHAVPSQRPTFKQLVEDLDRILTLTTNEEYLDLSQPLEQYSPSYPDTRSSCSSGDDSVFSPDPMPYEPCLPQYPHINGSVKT

FLT4 (human) = FLT4 (human) (UniProt P35916)
HCK (human) = HCK (human) (UniProt P08631)
IKBKE (human) = IKBKE (human) (UniProt Q14164)
Chain of IKBKE (human) (Q14164 whole entry, looked up): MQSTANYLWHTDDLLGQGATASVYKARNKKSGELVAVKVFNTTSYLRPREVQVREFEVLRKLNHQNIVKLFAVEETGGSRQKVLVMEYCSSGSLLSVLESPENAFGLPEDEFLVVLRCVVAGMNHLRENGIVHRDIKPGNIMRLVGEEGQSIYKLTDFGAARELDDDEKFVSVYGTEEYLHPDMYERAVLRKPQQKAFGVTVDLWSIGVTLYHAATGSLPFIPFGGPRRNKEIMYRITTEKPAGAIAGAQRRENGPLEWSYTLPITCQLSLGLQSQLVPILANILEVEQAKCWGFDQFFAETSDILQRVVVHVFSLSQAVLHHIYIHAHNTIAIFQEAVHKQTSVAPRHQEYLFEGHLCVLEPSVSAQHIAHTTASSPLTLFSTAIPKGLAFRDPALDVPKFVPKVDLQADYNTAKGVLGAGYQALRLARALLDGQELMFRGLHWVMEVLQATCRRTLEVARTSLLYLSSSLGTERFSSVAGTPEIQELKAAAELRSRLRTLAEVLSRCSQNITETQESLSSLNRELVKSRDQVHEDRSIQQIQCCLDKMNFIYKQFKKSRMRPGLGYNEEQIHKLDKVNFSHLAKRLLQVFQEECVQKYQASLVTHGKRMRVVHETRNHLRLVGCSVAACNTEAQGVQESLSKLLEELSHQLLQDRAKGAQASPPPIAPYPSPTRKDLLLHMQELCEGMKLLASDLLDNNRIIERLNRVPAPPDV

INSR (human) = INSR (human) (UniProt P06213)
MAP2K1 (human) = MAP2K1 (human) (UniProt Q02750)
Chain of MAP2K1 (human) (Q02750 whole entry, looked up): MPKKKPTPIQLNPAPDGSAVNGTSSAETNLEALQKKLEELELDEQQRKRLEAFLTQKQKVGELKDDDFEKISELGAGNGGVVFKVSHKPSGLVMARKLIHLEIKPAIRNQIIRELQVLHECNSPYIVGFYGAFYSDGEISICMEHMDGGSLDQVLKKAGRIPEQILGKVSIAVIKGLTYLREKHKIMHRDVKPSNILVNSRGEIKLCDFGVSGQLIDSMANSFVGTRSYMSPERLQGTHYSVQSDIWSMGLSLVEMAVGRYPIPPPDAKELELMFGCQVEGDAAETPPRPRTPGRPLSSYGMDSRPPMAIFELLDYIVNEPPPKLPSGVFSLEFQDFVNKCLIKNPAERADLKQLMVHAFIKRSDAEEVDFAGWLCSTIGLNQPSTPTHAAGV

MAP4K3 (human) = MAP4K3 (human) (UniProt Q8IVH8)
MAP4K5 (human) = MAP4K5 (human) (UniProt Q9Y4K4)
MAPK1 (human) = MAPK1 (human) (UniProt P28482)
Chain of MAPK1 (human) (P28482 whole entry, looked up): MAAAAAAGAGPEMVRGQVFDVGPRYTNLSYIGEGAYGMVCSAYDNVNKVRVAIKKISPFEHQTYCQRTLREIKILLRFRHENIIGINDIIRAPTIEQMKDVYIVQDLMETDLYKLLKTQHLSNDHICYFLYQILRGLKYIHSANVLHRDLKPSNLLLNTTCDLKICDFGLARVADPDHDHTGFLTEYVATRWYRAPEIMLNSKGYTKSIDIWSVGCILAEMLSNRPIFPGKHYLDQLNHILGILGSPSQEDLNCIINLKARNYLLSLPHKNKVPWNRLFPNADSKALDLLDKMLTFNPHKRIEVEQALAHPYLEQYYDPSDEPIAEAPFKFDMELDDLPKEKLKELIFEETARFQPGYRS

MAPK10 (human) = MAPK10 (human) (UniProt P53779)
Chain of MAPK10 (human) (P53779 whole entry, looked up): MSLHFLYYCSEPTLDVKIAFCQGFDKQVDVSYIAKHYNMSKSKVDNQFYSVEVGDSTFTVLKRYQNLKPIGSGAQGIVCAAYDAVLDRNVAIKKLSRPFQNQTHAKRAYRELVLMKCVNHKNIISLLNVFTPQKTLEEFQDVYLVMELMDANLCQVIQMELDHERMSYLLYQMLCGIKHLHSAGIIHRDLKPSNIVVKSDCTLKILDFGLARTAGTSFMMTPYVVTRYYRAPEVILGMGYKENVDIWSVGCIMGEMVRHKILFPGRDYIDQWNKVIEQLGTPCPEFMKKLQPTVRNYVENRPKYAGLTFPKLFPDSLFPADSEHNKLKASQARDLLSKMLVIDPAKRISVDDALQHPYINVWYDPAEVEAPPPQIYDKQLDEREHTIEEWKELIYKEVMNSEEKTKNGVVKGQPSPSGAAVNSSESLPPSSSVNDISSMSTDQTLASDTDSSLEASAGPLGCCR

MAPK14 (human) = MAPK14 (human) (UniProt Q16539)
Chain of MAPK14 (human) (Q16539 whole entry, looked up): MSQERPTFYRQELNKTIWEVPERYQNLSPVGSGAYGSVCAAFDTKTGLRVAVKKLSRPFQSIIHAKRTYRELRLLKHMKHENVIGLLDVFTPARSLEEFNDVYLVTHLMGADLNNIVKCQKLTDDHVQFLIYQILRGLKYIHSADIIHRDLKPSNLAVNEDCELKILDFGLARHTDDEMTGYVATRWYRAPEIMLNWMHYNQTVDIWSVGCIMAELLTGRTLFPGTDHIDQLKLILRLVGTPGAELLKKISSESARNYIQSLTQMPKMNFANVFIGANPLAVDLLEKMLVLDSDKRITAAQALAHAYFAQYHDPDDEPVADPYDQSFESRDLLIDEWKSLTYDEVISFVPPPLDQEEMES

MAPK7 (human) = MAPK7 (human) (UniProt Q13164)
MAPK9 (human) = MAPK9 (human) (UniProt P45984)
MARK1 (human) = MARK1 (human) (UniProt Q9P0L2)
Chain of MARK1 (human) (Q9P0L2 whole entry, looked up): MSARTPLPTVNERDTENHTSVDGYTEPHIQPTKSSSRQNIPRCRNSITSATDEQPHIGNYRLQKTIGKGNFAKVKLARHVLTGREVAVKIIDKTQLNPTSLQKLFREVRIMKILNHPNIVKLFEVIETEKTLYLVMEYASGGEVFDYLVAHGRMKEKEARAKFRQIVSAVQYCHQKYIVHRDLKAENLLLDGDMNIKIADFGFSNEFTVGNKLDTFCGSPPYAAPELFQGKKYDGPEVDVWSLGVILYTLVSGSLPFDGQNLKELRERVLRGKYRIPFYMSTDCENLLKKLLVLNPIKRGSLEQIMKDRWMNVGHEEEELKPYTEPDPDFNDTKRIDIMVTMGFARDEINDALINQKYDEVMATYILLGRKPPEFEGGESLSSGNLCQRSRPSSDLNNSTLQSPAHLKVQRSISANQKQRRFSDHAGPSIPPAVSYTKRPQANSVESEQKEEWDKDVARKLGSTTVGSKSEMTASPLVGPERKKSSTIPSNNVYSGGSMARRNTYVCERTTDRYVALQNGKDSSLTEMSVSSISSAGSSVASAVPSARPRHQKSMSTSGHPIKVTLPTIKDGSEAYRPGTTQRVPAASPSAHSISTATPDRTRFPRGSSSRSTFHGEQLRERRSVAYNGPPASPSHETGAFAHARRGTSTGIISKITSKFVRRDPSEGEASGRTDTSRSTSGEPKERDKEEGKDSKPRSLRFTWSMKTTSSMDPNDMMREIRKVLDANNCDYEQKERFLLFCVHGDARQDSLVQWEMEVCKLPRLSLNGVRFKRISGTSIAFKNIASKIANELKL

MYLK2 (human) = MYLK2 (human) (UniProt Q9H1R3)
MYO3B (human) = MYO3B (human) (UniProt Q8WXR4)
NEK5 (human) = NEK5 (human) (UniProt Q6P3R8)
PAK4 (human) = PAK4 (human) (UniProt O96013)
PKMYT1 (human) = PKMYT1 (human) (UniProt Q99640)
PRKD2 (human) = PRKD2 (human) (UniProt Q9BZL6)
Chain of PRKD2 (human) (Q9BZL6 whole entry, looked up): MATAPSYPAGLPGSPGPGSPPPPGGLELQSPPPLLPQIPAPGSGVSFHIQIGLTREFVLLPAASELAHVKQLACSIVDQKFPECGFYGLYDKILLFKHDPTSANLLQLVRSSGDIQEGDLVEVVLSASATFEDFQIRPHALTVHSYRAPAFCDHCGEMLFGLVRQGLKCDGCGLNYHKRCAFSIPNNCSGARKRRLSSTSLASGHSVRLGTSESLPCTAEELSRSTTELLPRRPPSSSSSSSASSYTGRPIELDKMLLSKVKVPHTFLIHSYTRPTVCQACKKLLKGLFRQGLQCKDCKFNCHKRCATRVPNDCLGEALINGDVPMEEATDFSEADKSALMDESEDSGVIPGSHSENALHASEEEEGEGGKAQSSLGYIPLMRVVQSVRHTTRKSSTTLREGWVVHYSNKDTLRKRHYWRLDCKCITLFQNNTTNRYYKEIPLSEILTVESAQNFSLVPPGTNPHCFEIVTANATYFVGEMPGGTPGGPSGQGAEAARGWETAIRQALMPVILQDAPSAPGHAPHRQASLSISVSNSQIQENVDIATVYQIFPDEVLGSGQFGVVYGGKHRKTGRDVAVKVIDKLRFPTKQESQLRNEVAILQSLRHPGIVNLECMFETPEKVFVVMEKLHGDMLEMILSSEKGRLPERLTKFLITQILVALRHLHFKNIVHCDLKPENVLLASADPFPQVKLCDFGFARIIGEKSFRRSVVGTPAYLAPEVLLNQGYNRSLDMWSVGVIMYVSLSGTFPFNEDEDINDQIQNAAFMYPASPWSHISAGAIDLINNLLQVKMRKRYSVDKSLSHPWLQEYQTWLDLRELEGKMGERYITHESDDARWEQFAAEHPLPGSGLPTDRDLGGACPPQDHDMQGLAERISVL

PRKX (human) = PRKX (human) (UniProt P51817)
RET (human) = RET (human) (UniProt P07949)
[3] = system: RET (human), P07949 [V804L]
RPS6KA2 KD1 (human) = RPS6KA2 KD1 (human) (UniProt Q15349)
RPS6KA5 KD1 (human) = RPS6KA5 KD1 (human) (UniProt O75582)
RPS6KA6 KD1 (human) = RPS6KA6 KD1 (human) (UniProt Q9UK32)
STK25 (human) = STK25 (human) (UniProt O00506)
STK35 (human) = STK35 (human) (UniProt Q8TDR2)
STK36 (human) = STK36 (human) (UniProt Q9NRP7)
ULK1 (human) = ULK1 (human) (UniProt O75385)
ZAP70 (human) = ZAP70 (human) (UniProt P43403)

SMILES: COc1cc(N2CCN(C)CC2)ccc1Nc1ncc2c(n1)Nc1ccccc1NC2=O
- kinase still bound, per cent of control [1]: 14%
- kinase still bound, per cent of control [2]: 26%
- kinase still bound, per cent of control (ADCK4 (human)): 84%
- kinase still bound, per cent of control (CAMK2B (human)): 98%
- kinase still bound, per cent of control (CDC42BPA (human)): 100%
- kinase still bound, per cent of control (CDC42BPG (human)): 100%
- kinase still bound, per cent of control (EPHA5 (human)): 90%
- kinase still bound, per cent of control (EPHB1 (human)): 96%
- kinase still bound, per cent of control (EPHB3 (human)): 93%
- kinase still bound, per cent of control (EPHB4 (human)): 100%
- kinase still bound, per cent of control (FGFR1 (human)): 80%
- kinase still bound, per cent of control (FGFR2 (human)): 87%
- kinase still bound, per cent of control (FLT4 (human)): 10%
- kinase still bound, per cent of control (HCK (human)): 63%
- kinase still bound, per cent of control (IKBKE (human)): 97%
- kinase still bound, per cent of control (INSR (human)): 69%
- kinase still bound, per cent of control (MAP2K1 (human)): 71%
- kinase still bound, per cent of control (MAP4K3 (human)): 100%
- kinase still bound, per cent of control (MAP4K5 (human)): 98%
- kinase still bound, per cent of control (MAPK1 (human)): 94%
- kinase still bound, per cent of control (MAPK10 (human)): 58%
- kinase still bound, per cent of control (MAPK14 (human)): 100%
- kinase still bound, per cent of control (MAPK7 (human)): 100%
- kinase still bound, per cent of control (MAPK9 (human)): 69%
- kinase still bound, per cent of control (MARK1 (human)): 100%
- kinase still bound, per cent of control (MYLK2 (human)): 69%
- kinase still bound, per cent of control (MYO3B (human)): 100%
- kinase still bound, per cent of control (NEK5 (human)): 100%
- kinase still bound, per cent of control (PAK4 (human)): 94%
- kinase still bound, per cent of control (PKMYT1 (human)): 100%
- kinase still bound, per cent of control (PRKD2 (human)): 100%
- kinase still bound, per cent of control (PRKX (human)): 100%
- kinase still bound, per cent of control (RET (human)): 95%
- kinase still bound, per cent of control [3]: 80%
- kinase still bound, per cent of control (RPS6KA2 KD1 (human)): 61%
- kinase still bound, per cent of control (RPS6KA5 KD1 (human)): 90%
- kinase still bound, per cent of control (RPS6KA6 KD1 (human)): 93%
- kinase still bound, per cent of control (STK25 (human)): 84%
- kinase still bound, per cent of control (STK35 (human)): 100%
- kinase still bound, per cent of control (STK36 (human)): 64%
- kinase still bound, per cent of control (ULK1 (human)): 100%
- kinase still bound, per cent of control (ZAP70 (human)): 100%

SMILES: COc1cc(N2CCC(O)CC2)ccc1Nc1ncc2c(n1)N1CCc3cccc(c31)C(=O)N2C
- kinase still bound, per cent of control [1]: 100%
- kinase still bound, per cent of control [2]: 100%
- kinase still bound, per cent of control (ADCK4 (human)): 86%
- kinase still bound, per cent of control (CAMK2B (human)): 72%
- kinase still bound, per cent of control (CDC42BPA (human)): 100%
- kinase still bound, per cent of control (CDC42BPG (human)): 100%
- kinase still bound, per cent of control (EPHA5 (human)): 88%
- kinase still bound, per cent of control (EPHB1 (human)): 99%
- kinase still bound, per cent of control (EPHB3 (human)): 100%
- kinase still bound, per cent of control (EPHB4 (human)): 100%
- kinase still bound, per cent of control (FGFR1 (human)): 95%
- kinase still bound, per cent of control (FGFR2 (human)): 95%
- kinase still bound, per cent of control (FLT4 (human)): 93%
- kinase still bound, per cent of control (HCK (human)): 100%
- kinase still bound, per cent of control (IKBKE (human)): 92%
- kinase still bound, per cent of control (INSR (human)): 53%
- kinase still bound, per cent of control (MAP2K1 (human)): 100%
- kinase still bound, per cent of control (MAP4K3 (human)): 66%
- kinase still bound, per cent of control (MAP4K5 (human)): 99%
- kinase still bound, per cent of control (MAPK1 (human)): 75%
- kinase still bound, per cent of control (MAPK10 (human)): 42%
- kinase still bound, per cent of control (MAPK14 (human)): 61%
- kinase still bound, per cent of control (MAPK7 (human)): 0.3%
- kinase still bound, per cent of control (MAPK9 (human)): 51%
- kinase still bound, per cent of control (MARK1 (human)): 95%
- kinase still bound, per cent of control (MYLK2 (human)): 98%
- kinase still bound, per cent of control (MYO3B (human)): 77%
- kinase still bound, per cent of control (NEK5 (human)): 81%
- kinase still bound, per cent of control (PAK4 (human)): 90%
- kinase still bound, per cent of control (PKMYT1 (human)): 69%
- kinase still bound, per cent of control (PRKD2 (human)): 45%
- kinase still bound, per cent of control (PRKX (human)): 91%
- kinase still bound, per cent of control (RET (human)): 100%
- kinase still bound, per cent of control [3]: 100%
- kinase still bound, per cent of control (RPS6KA2 KD1 (human)): 77%
- kinase still bound, per cent of control (RPS6KA5 KD1 (human)): 59%
- kinase still bound, per cent of control (RPS6KA6 KD1 (human)): 87%
- kinase still bound, per cent of control (STK25 (human)): 99%
- kinase still bound, per cent of control (STK35 (human)): 95%
- kinase still bound, per cent of control (STK36 (human)): 100%
- kinase still bound, per cent of control (ULK1 (human)): 78%
- kinase still bound, per cent of control (ZAP70 (human)): 65%
